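Method: 48-hour compound exposure of cells in 96-well plates, five concentrations, linear interpolation of endpoints. At the GI50, growth is halved.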 Active and inactive are the calls of the source. Rule as the data show it: active = GI50 up to about 1.1 µM and inactive = higher.
Tests used:
Assay in all cases: growth of human tumour cells (NCI), 48 h
786-0 = system: 786-0
A498 = system: A498
A549 = system: A549
ACHN = system: ACHN
BT-549 = system: BT-549
CAKI-1 = system: CAKI-1
CCRF-CEM = system: CCRF-CEM
COLO 205 = system: COLO 205
DU-145 = system: DU-145
EKVX = system: EKVX
HCC 2998 = system: HCC 2998
HCT-116 = system: HCT-116
HCT-15 = system: HCT-15
HL-60 = system: HL-60
HOP-62 = system: HOP-62
HOP-92 = system: HOP-92
HT-29 = system: HT-29
Hs-578T = system: Hs-578T
IGROV-1 = system: IGROV-1
K562 = system: K562
KM12 = system: KM12
LOX IMVI = system: LOX IMVI
M14 = system: M14
MCF7 = system: MCF7
MDA-MB-231 = system: MDA-MB-231
MDA-MB-435 = system: MDA-MB-435
MOLT-4 = system: MOLT-4
Malme-3M = system: Malme-3M
NCI-H226 = system: NCI-H226
NCI-H23 = system: NCI-H23
NCI-H460 = system: NCI-H460
NCI-H522 = system: NCI-H522
NCI/ADR-RES = system: NCI/ADR-RES
OVCAR-3 = system: OVCAR-3
OVCAR-4 = system: OVCAR-4
OVCAR-5 = system: OVCAR-5
OVCAR-8 = system: OVCAR-8
RPMI-8226 = system: RPMI-8226
RXF 393 = system: RXF 393
SF-268 = system: SF-268
SF-295 = system: SF-295
SF-539 = system: SF-539
SK-MEL-28 = system: SK-MEL-28
SK-MEL-5 = system: SK-MEL-5
SK-OV-3 = system: SK-OV-3
SN12C = system: SN12C
SNB-19 = system: SNB-19
SNB-75 = system: SNB-75
SR = system: SR
SW-620 = system: SW-620
T47D = system: T47D
TK-10 = system: TK-10
U-251 = system: U-251
UACC-257 = system: UACC-257
UACC-62 = system: UACC-62
UO-31 = system: UO-31
MDA-N = system: MDA-N
PC-3 = system: PC-3
SK-MEL-2 = system: SK-MEL-2

For `C/C(=C\COP(=O)(O)OP(=O)(O)O)CCCCCCOCc1ccccc1`, the GI50 (786-0) was > 100 µM (inactive), the GI50 (A498) was > 100 µM (inactive) and the GI50 (A549) was > 100 µM (inactive). The GI50 (ACHN) was > 100 µM (inactive), the GI50 (BT-549) was > 100 µM (inactive) and the GI50 (CAKI-1) was > 100 µM (inactive). For the same compound, the GI50 (CCRF-CEM) was > 100 µM (inactive), the GI50 (COLO 205) was > 100 µM (inactive) and the GI50 (DU-145) was > 100 µM (inactive). The GI50 (EKVX) was > 100 µM (inactive), the GI50 (HCC 2998) was > 100 µM (inactive) and the GI50 (HCT-116) was > 100 µM (inactive). The GI50 (HCT-15) was > 100 µM, the GI50 (HL-60) was > 100 µM (inactive) and the GI50 (HOP-62) was > 100 µM (inactive). The GI50 (HOP-92) was > 100 µM (inactive), the GI50 (HT-29) was > 100 µM (inactive) and the GI50 (Hs-578T) was > 100 µM (inactive). For the same compound, the GI50 (IGROV-1) was > 100 µM (inactive), the GI50 (K562) was > 100 µM (inactive) and the GI50 (KM12) was > 100 µM (inactive). For the same compound, the GI50 (LOX IMVI) was > 100 µM (inactive), the GI50 (M14) was > 100 µM (inactive) and the GI50 (MCF7) was > 100 µM (inactive). For the same compound, the GI50 (MDA-MB-231) was > 100 µM (inactive), the GI50 (MDA-MB-435) was > 100 µM (inactive) and the GI50 (MOLT-4) was > 100 µM (inactive). The GI50 (Malme-3M) was > 100 µM (inactive), the GI50 (NCI-H226) was > 100 µM (inactive) and the GI50 (NCI-H23) was > 100 µM (inactive). For the same compound, the GI50 (NCI-H460) was > 100 µM (inactive), the GI50 (NCI-H522) was > 100 µM (inactive) and the GI50 (NCI/ADR-RES) was > 100 µM (inactive). For the same compound, the GI50 (OVCAR-3) was > 100 µM (inactive), the GI50 (OVCAR-4) was > 100 µM (inactive) and the GI50 (OVCAR-5) was > 100 µM (inactive). For the same compound, the GI50 (OVCAR-8) was > 100 µM (inactive), the GI50 (RPMI-8226) was > 100 µM (inactive) and the GI50 (RXF 393) was > 100 µM (inactive). For the same compound, the GI50 (SF-268) was > 100 µM (inactive), the GI50 (SF-295) was > 100 µM (inactive) and the GI50 (SF-539) was > 100 µM (inactive). For the same compound, the GI50 (SK-MEL-28) was > 100 µM (inactive), the GI50 (SK-MEL-5) was > 100 µM (inactive) and the GI50 (SK-OV-3) was > 100 µM (inactive). The GI50 (SN12C) was > 100 µM (inactive), the GI50 (SNB-19) was > 100 µM (inactive) and the GI50 (SNB-75) was > 100 µM (inactive). The GI50 (SR) was > 100 µM (inactive), the GI50 (SW-620) was > 100 µM (inactive) and the GI50 (T47D) was > 100 µM (inactive). For the same compound, the GI50 (TK-10) was > 100 µM (inactive), the GI50 (U-251) was > 100 µM (inactive) and the GI50 (UACC-257) was > 100 µM (inactive). The GI50 (UACC-62) was > 100 µM (inactive) and the GI50 (UO-31) was > 100 µM (inactive).

With `c1cc(C2=NCCO2)c2ccsc2c1` the GI50 (786-0) was > 100 µM (inactive), the GI50 (A498) was > 100 µM (inactive) and the GI50 (A549) was > 100 µM (inactive). The GI50 (ACHN) was > 100 µM (inactive), the GI50 (CAKI-1) was > 100 µM (inactive) and the GI50 (CCRF-CEM) was > 100 µM (inactive). The GI50 (COLO 205) was > 100 µM (inactive), the GI50 (DU-145) was > 100 µM (inactive) and the GI50 (EKVX) was > 100 µM (inactive). For the same compound, the GI50 (HCC 2998) was > 100 µM (inactive), the GI50 (HCT-116) was > 100 µM (inactive) and the GI50 (HCT-15) was > 100 µM. The GI50 (HL-60) was > 100 µM (inactive), the GI50 (HOP-62) was > 100 µM (inactive) and the GI50 (HOP-92) was 41.2 µM (inactive). For the same compound, the GI50 (HT-29) was > 100 µM (inactive), the GI50 (Hs-578T) was 22.7 µM (inactive) and the GI50 (IGROV-1) was > 100 µM (inactive). For the same compound, the GI50 (K562) was > 100 µM (inactive), the GI50 (KM12) was > 100 µM (inactive) and the GI50 (LOX IMVI) was > 100 µM (inactive). For the same compound, the GI50 (M14) was > 100 µM (inactive), the GI50 (MCF7) was > 100 µM (inactive) and the GI50 (MDA-MB-231) was > 100 µM (inactive). For the same compound, the GI50 (MDA-MB-435) was > 100 µM (inactive), the GI50 (MDA-N) was > 100 µM (inactive) and the GI50 (MOLT-4) was > 100 µM (inactive). The GI50 (Malme-3M) was > 100 µM (inactive), the GI50 (NCI-H226) was > 100 µM (inactive) and the GI50 (NCI-H23) was > 100 µM (inactive). The GI50 (NCI-H460) was > 100 µM (inactive), the GI50 (NCI-H522) was > 100 µM (inactive) and the GI50 (NCI/ADR-RES) was > 100 µM (inactive). The GI50 (OVCAR-3) was > 100 µM (inactive), the GI50 (OVCAR-4) was > 100 µM (inactive) and the GI50 (OVCAR-5) was > 100 µM (inactive). The GI50 (OVCAR-8) was > 100 µM (inactive), the GI50 (PC-3) was > 100 µM (inactive) and the GI50 (RPMI-8226) was > 100 µM (inactive). The GI50 (RXF 393) was > 100 µM (inactive), the GI50 (SF-268) was > 100 µM (inactive) and the GI50 (SF-295) was > 100 µM (inactive). For the same compound, the GI50 (SF-539) was > 100 µM (inactive), the GI50 (SK-MEL-28) was > 100 µM (inactive) and the GI50 (SK-MEL-2) was > 100 µM (inactive). The GI50 (SK-MEL-5) was > 100 µM (inactive), the GI50 (SK-OV-3) was > 100 µM (inactive) and the GI50 (SN12C) was > 100 µM (inactive). For the same compound, the GI50 (SNB-19) was > 100 µM (inactive), the GI50 (SNB-75) was 0.0573 µM (active) and the GI50 (SR) was > 100 µM (inactive). The GI50 (SW-620) was > 100 µM (inactive), the GI50 (T47D) was > 100 µM (inactive) and the GI50 (TK-10) was > 100 µM (inactive). For the same compound, the GI50 (U-251) was > 100 µM (inactive), the GI50 (UACC-257) was > 100 µM (inactive) and the GI50 (UACC-62) was > 100 µM (inactive). The GI50 (UO-31) was > 100 µM (inactive).

With `COc1cccc(N(CN2C(=O)CCC2C(=O)O)C(C)=O)c1` (stereo unspecified) the GI50 (786-0) was > 100 µM (inactive), the GI50 (A498) was > 100 µM (inactive) and the GI50 (A549) was > 100 µM (inactive). The GI50 (ACHN) was > 100 µM (inactive), the GI50 (CAKI-1) was > 100 µM (inactive) and the GI50 (COLO 205) was > 100 µM (inactive). For the same compound, the GI50 (DU-145) was > 100 µM (inactive), the GI50 (EKVX) was > 100 µM (inactive) and the GI50 (HCC 2998) was > 100 µM (inactive). The GI50 (HCT-116) was > 100 µM (inactive), the GI50 (HCT-15) was > 100 µM and the GI50 (HL-60) was > 100 µM (inactive). For the same compound, the GI50 (HOP-62) was > 100 µM (inactive), the GI50 (HOP-92) was > 100 µM (inactive) and the GI50 (HT-29) was > 100 µM (inactive). For the same compound, the GI50 (Hs-578T) was > 100 µM (inactive), the GI50 (IGROV-1) was > 100 µM (inactive) and the GI50 (K562) was > 100 µM (inactive). The GI50 (KM12) was > 100 µM (inactive), the GI50 (LOX IMVI) was > 100 µM (inactive) and the GI50 (M14) was > 100 µM (inactive). The GI50 (MCF7) was > 100 µM (inactive), the GI50 (MDA-MB-231) was > 100 µM (inactive) and the GI50 (MDA-MB-435) was > 100 µM (inactive). The GI50 (MDA-N) was > 100 µM (inactive), the GI50 (MOLT-4) was > 100 µM (inactive) and the GI50 (Malme-3M) was > 100 µM (inactive). The GI50 (NCI-H226) was > 100 µM (inactive), the GI50 (NCI-H23) was > 100 µM (inactive) and the GI50 (NCI-H460) was > 100 µM (inactive). The GI50 (NCI-H522) was > 100 µM (inactive), the GI50 (NCI/ADR-RES) was > 100 µM (inactive) and the GI50 (OVCAR-3) was > 100 µM (inactive). The GI50 (OVCAR-4) was > 100 µM (inactive), the GI50 (OVCAR-5) was > 100 µM (inactive) and the GI50 (OVCAR-8) was > 100 µM (inactive). For the same compound, the GI50 (PC-3) was > 100 µM (inactive), the GI50 (RPMI-8226) was > 100 µM (inactive) and the GI50 (RXF 393) was > 100 µM (inactive). The GI50 (SF-268) was > 100 µM (inactive), the GI50 (SF-295) was > 100 µM (inactive) and the GI50 (SF-539) was > 100 µM (inactive). For the same compound, the GI50 (SK-MEL-28) was > 100 µM (inactive), the GI50 (SK-MEL-2) was > 100 µM (inactive) and the GI50 (SK-MEL-5) was > 100 µM (inactive). For the same compound, the GI50 (SK-OV-3) was > 100 µM (inactive), the GI50 (SN12C) was > 100 µM (inactive) and the GI50 (SNB-19) was > 100 µM (inactive). The GI50 (SNB-75) was > 100 µM (inactive), the GI50 (SR) was > 100 µM (inactive) and the GI50 (SW-620) was > 100 µM (inactive). The GI50 (T47D) was > 100 µM (inactive), the GI50 (TK-10) was > 100 µM (inactive) and the GI50 (U-251) was > 100 µM (inactive). The GI50 (UACC-257) was > 100 µM (inactive), the GI50 (UACC-62) was > 100 µM (inactive) and the GI50 (UO-31) was > 100 µM (inactive).

Source: ChEMBL document CHEMBL1201862, “PubChem BioAssay data set” (2004)
